{"source": "patent US20050239656A1", "about": "“Pyridine compounds or salts thereof and herbicides containing the same” (priority 2002, published 2005)", "key": {"[1]": {"tested_on": "barnyardgrass", "experiment": "Test Example 2: soil surface treatment, upland pot test", "type": "in vivo, Echinochloa crus-galli L.", "settings": "active ingredient 500 g/ha, observed 20th to 28th day", "procedure,_shortened": "(§1)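 Visual growth-control ratings, from 0 (like the non-treated plot) to 100 (total kill), were made between days 20 and 28 after a soil-surface spray. The compound, formulated as wettable powder or emulsifiable concentrate and diluted at 1,500 L/ha, went on one day post-sowing in upland-soil pots of 1/170,000 ha.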"}, "[2]": {"tested_on": "crabgrass", "experiment": "Test Example 2: soil surface treatment, upland pot test", "type": "in vivo, Digitaria sanguinalis L.", "settings": "active ingredient 500 g/ha, observed 20th to 28th day", "procedure,_shortened": "as §1"}, "[3]": {"tested_on": "green foxtail", "experiment": "Test Example 2: soil surface treatment, upland pot test", "type": "in vivo, Setaria viridis L.", "settings": "active ingredient 500 g/ha, observed 20th to 28th day", "procedure,_shortened": "as §1"}, "[4]": {"tested_on": "redroot pigweed", "experiment": "Test Example 2: soil surface treatment, upland pot test", "type": "in vivo, Amaranthus retroflexus L.", "settings": "active ingredient 500 g/ha, observed 20th to 28th day", "procedure,_shortened": "as §1"}, "[5]": {"tested_on": "prickly sida", "experiment": "Test Example 2: soil surface treatment, upland pot test", "type": "in vivo, Sida spinosa L.", "settings": "active ingredient 500 g/ha, observed 20th to 28th day", "procedure,_shortened": "as §1"}, "[6]": {"tested_on": "velvetleaf", "experiment": "Test Example 2: soil surface treatment, upland pot test", "type": "in vivo, Abutilon theophrasti MEDIC.", "settings": "active ingredient 500 g/ha, observed 20th to 28th day", "procedure,_shortened": "as §1"}, "[7]": {"tested_on": "rice", "experiment": "Test Example 2: soil surface treatment, upland pot test", "type": "in vivo, Oryza sativa L.", "settings": "active ingredient 500 g/ha, observed 20th to 28th day", "procedure,_shortened": "as §1"}, "[8]": {"tested_on": "corn", "experiment": "Test Example 2: soil surface treatment, upland pot test", "type": "in vivo, Zea mays L.", "settings": "active ingredient 500 g/ha, observed 20th to 28th day", "procedure,_shortened": "as §1"}, "[9]": {"tested_on": "soybean", "experiment": "Test Example 2: soil surface treatment, upland pot test", "type": "in vivo, Glycine max Merr.", "settings": "active ingredient 500 g/ha, observed 20th to 28th day", "procedure,_shortened": "as §1"}, "[10]": {"tested_on": "barnyardgrass", "experiment": "Test Example 3: paddy pot test, application under submerged conditions", "type": "in vivo, Echinochloa crus-galli L.", "settings": "submerged application at 0.5 leaf stage, visually observed 14 days after application, 0 = non-treated, 100 = complete kill", "procedure,_shortened": "(§2)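 Barnyardgrass and japanese bulrush sown in flooded paddy soil in greenhouse pots, japanese ribbon wapato tubers planted 1–2 days later; water depth kept at 3–4 cm. Diluted wettable powder or emulsifiable concentrate applied into water at 0.5-leaf or primary-leaf stage at set active-ingredient doses. Growth control scored visually at 14 days, 0 (untreated) to 100% (complete kill).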"}, "[11]": {"tested_on": "japanese bulrush", "experiment": "Test Example 3: paddy pot test, application under submerged conditions", "type": "in vivo, Scirpus juncoides", "settings": "submerged application at 0.5 leaf stage, visually observed 14 days after application, 0 = non-treated, 100 = complete kill", "procedure,_shortened": "as §2"}, "[12]": {"tested_on": "japanese ribbon wapato", "experiment": "Test Example 3: paddy pot test, application under submerged conditions", "type": "in vivo, Sagittaria pygniaea", "settings": "submerged application at primary leaf stage, visually observed 14 days after application, 0 = non-treated, 100 = complete kill", "procedure,_shortened": "as §2"}, "[13]": {"tested_on": "rice (var. Nihonbare)", "experiment": "Test Example 3: paddy pot test, transplanted rice", "type": "in vivo, Oryza sativa L.", "settings": "applied 4th day after transplantation, visually observed 21st day after application, 0 = non-treated, 100 = complete kill", "procedure,_shortened": "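Rice (var. Nihonbare) at 2 leaf stage transplanted 3 cm deep into puddled paddy soil under 3–4 cm flooding; on day 4 after transplanting, diluted wettable powder or emulsifiable concentrate applied by pipette under submerged conditions at a set active-ingredient dose. Growth scored visually 21 days after application, 0 (untreated) to 100 (complete kill) %.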"}}}
{"smiles": "CCc1ccc(CC(=O)N(C)C(c2cnccc2C(F)(F)F)C(C)C)cc1", "note": "(centres unmarked) [I-95]", "values": [{"measurement": "Growth controlling degree (%) Barnyardgrass", "setting": "[1]", "result": 95, "unit": "%"}, {"measurement": "Growth controlling degree (%) Crabgrass", "setting": "[2]", "result": 98, "unit": "%"}, {"measurement": "Growth controlling degree (%) Green foxtail", "setting": "[3]", "result": 90, "unit": "%"}, {"measurement": "Growth controlling degree (%) Redroot pigweed", "setting": "[4]", "result": 60, "unit": "%"}, {"measurement": "Growth controlling degree (%) Prickly sida", "setting": "[5]", "result": 80, "unit": "%"}, {"measurement": "Growth controlling degree (%) Velvetleaf", "setting": "[6]", "result": 30, "unit": "%"}, {"measurement": "Growth controlling degree (%) Rice", "setting": "[7]", "result": 10, "unit": "%"}, {"measurement": "Growth controlling degree (%) Corn", "setting": "[8]", "result": 10, "unit": "%"}, {"measurement": "Growth controlling degree (%) Soyabean", "setting": "[9]", "result": 30, "unit": "%"}, {"measurement": "Growth controlling degree (%) Barnyardgrass", "setting": "[10]; active ingredient 250 g/ha", "result": 100, "unit": "%"}, {"measurement": "Growth controlling degree (%) Japanese bulrush", "setting": "[11]; active ingredient 250 g/ha", "result": 98, "unit": "%"}, {"measurement": "Growth controlling degree (%) Japanese ribbon wapato", "setting": "[12]; active ingredient 250 g/ha", "result": 20, "unit": "%"}, {"measurement": "Growth controlling degree (%) Rice", "setting": "[13]; active ingredient 250 g/ha", "result": 0, "unit": "%"}]}
{"smiles": "CC(C)C(c1cnccc1C(F)(F)F)N(C)C(=O)CCc1ccccc1", "note": "(centres unmarked) [I-169]", "values": [{"measurement": "Growth controlling degree (%) Barnyardgrass", "setting": "[1]", "result": 100, "unit": "%"}, {"measurement": "Growth controlling degree (%) Crabgrass", "setting": "[2]", "result": 98, "unit": "%"}, {"measurement": "Growth controlling degree (%) Green foxtail", "setting": "[3]", "result": 100, "unit": "%"}, {"measurement": "Growth controlling degree (%) Redroot pigweed", "setting": "[4]", "result": 70, "unit": "%"}, {"measurement": "Growth controlling degree (%) Prickly sida", "setting": "[5]", "result": 90, "unit": "%"}, {"measurement": "Growth controlling degree (%) Velvetleaf", "setting": "[6]", "result": 20, "unit": "%"}, {"measurement": "Growth controlling degree (%) Rice", "setting": "[7]", "result": 40, "unit": "%"}, {"measurement": "Growth controlling degree (%) Corn", "setting": "[8]", "result": 40, "unit": "%"}, {"measurement": "Growth controlling degree (%) Soyabean", "setting": "[9]", "result": 30, "unit": "%"}, {"measurement": "Growth controlling degree (%) Barnyardgrass", "setting": "[10]; active ingredient 250 g/ha", "result": 100, "unit": "%"}, {"measurement": "Growth controlling degree (%) Japanese bulrush", "setting": "[11]; active ingredient 250 g/ha", "result": 50, "unit": "%"}, {"measurement": "Growth controlling degree (%) Japanese ribbon wapato", "setting": "[12]; active ingredient 250 g/ha", "result": 0, "unit": "%"}, {"measurement": "Growth controlling degree (%) Rice", "setting": "[13]; active ingredient 250 g/ha", "result": 10, "unit": "%"}]}
{"smiles": "CC(C)C(c1cnccc1C(F)(F)F)N(C)C(=O)Cc1ccsc1", "note": "(centres unmarked) [I-170]", "values": [{"measurement": "Growth controlling degree (%) Barnyardgrass", "setting": "[1]", "result": 100, "unit": "%"}, {"measurement": "Growth controlling degree (%) Crabgrass", "setting": "[2]", "result": 98, "unit": "%"}, {"measurement": "Growth controlling degree (%) Green foxtail", "setting": "[3]", "result": 100, "unit": "%"}, {"measurement": "Growth controlling degree (%) Redroot pigweed", "setting": "[4]", "result": 30, "unit": "%"}, {"measurement": "Growth controlling degree (%) Prickly sida", "setting": "[5]", "result": 95, "unit": "%"}, {"measurement": "Growth controlling degree (%) Velvetleaf", "setting": "[6]", "result": 30, "unit": "%"}, {"measurement": "Growth controlling degree (%) Rice", "setting": "[7]", "result": 30, "unit": "%"}, {"measurement": "Growth controlling degree (%) Corn", "setting": "[8]", "result": 50, "unit": "%"}, {"measurement": "Growth controlling degree (%) Soyabean", "setting": "[9]", "result": 35, "unit": "%"}, {"measurement": "Growth controlling degree (%) Barnyardgrass", "setting": "[10]; active ingredient 250 g/ha", "result": 100, "unit": "%"}, {"measurement": "Growth controlling degree (%) Japanese bulrush", "setting": "[11]; active ingredient 250 g/ha", "result": 100, "unit": "%"}, {"measurement": "Growth controlling degree (%) Japanese ribbon wapato", "setting": "[12]; active ingredient 250 g/ha", "result": 70, "unit": "%"}, {"measurement": "Growth controlling degree (%) Rice", "setting": "[13]; active ingredient 250 g/ha", "result": 0, "unit": "%"}]}
{"smiles": "CC(C)C(c1cnccc1C(F)(F)F)N(C)C(=O)C=Cc1ccc(F)cc1", "note": "(centres unmarked) [I-172]", "values": [{"measurement": "Growth controlling degree (%) Barnyardgrass", "setting": "[1]", "result": 40, "unit": "%"}, {"measurement": "Growth controlling degree (%) Crabgrass", "setting": "[2]", "result": 98, "unit": "%"}, {"measurement": "Growth controlling degree (%) Green foxtail", "setting": "[3]", "result": 95, "unit": "%"}, {"measurement": "Growth controlling degree (%) Redroot pigweed", "setting": "[4]", "result": 60, "unit": "%"}, {"measurement": "Growth controlling degree (%) Prickly sida", "setting": "[5]", "result": 80, "unit": "%"}, {"measurement": "Growth controlling degree (%) Velvetleaf", "setting": "[6]", "result": 10, "unit": "%"}, {"measurement": "Growth controlling degree (%) Rice", "setting": "[7]", "result": 20, "unit": "%"}, {"measurement": "Growth controlling degree (%) Corn", "setting": "[8]", "result": 10, "unit": "%"}, {"measurement": "Growth controlling degree (%) Soyabean", "setting": "[9]", "result": 0, "unit": "%"}, {"measurement": "Growth controlling degree (%) Barnyardgrass", "setting": "[10]; active ingredient 250 g/ha", "result": 100, "unit": "%"}, {"measurement": "Growth controlling degree (%) Japanese bulrush", "setting": "[11]; active ingredient 250 g/ha", "result": 98, "unit": "%"}, {"measurement": "Growth controlling degree (%) Japanese ribbon wapato", "setting": "[12]; active ingredient 250 g/ha", "result": 95, "unit": "%"}, {"measurement": "Growth controlling degree (%) Rice", "setting": "[13]; active ingredient 250 g/ha", "result": 0, "unit": "%"}]}
{"smiles": "CC=CC(=O)N(C)C(c1cnccc1C(F)(F)F)C(C)C", "note": "(centres unmarked) [I-180]", "values": [{"measurement": "Growth controlling degree (%) Barnyardgrass", "setting": "[1]", "result": 100, "unit": "%"}, {"measurement": "Growth controlling degree (%) Crabgrass", "setting": "[2]", "result": 100, "unit": "%"}, {"measurement": "Growth controlling degree (%) Green foxtail", "setting": "[3]", "result": 100, "unit": "%"}, {"measurement": "Growth controlling degree (%) Redroot pigweed", "setting": "[4]", "result": 80, "unit": "%"}, {"measurement": "Growth controlling degree (%) Prickly sida", "setting": "[5]", "result": 80, "unit": "%"}, {"measurement": "Growth controlling degree (%) Velvetleaf", "setting": "[6]", "result": 50, "unit": "%"}, {"measurement": "Growth controlling degree (%) Rice", "setting": "[7]", "result": 50, "unit": "%"}, {"measurement": "Growth controlling degree (%) Corn", "setting": "[8]", "result": 10, "unit": "%"}, {"measurement": "Growth controlling degree (%) Soyabean", "setting": "[9]", "result": 10, "unit": "%"}, {"measurement": "Growth controlling degree (%) Barnyardgrass", "setting": "[10]; active ingredient 500 g/ha", "result": 98, "unit": "%"}, {"measurement": "Growth controlling degree (%) Japanese bulrush", "setting": "[11]; active ingredient 500 g/ha", "result": 100, "unit": "%"}, {"measurement": "Growth controlling degree (%) Japanese ribbon wapato", "setting": "[12]; active ingredient 500 g/ha", "result": 60, "unit": "%"}, {"measurement": "Growth controlling degree (%) Rice", "setting": "[13]; active ingredient 500 g/ha", "result": 30, "unit": "%"}]}
